Measurements published in US20200024278A1, “COMPOSITION COMPRISING ANTIBIOTIC COMPOUND AND AN HETEROCYCLIC COMPOUND AND THEIR USE IN PREVENTING OR TREATING BACTERIAL INFECTIONS” (MUTABILIS, priority 2016, published 2020).
Like-named read-outs stand apart in the source and are kept apart here.

Legend:
Experiment in all cases: MIC, broth microdilution (CLSI), substance alone or ATB combined with compound at 4 or 8 μg/mL
ECL P99 = format: cell-based, E. cloacae; conditions: for MIC: Enterobacter cloacae
In short: (§1)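 Per CLSI-M7-A7, MICs are determined in cation-adjusted Mueller-Hinton broth with a final inoculum of 5·10^5 CFU/mL. Plates incubate 16-20 h at 35° C in air and are read by eye. Fosfomycin assays carry 25 μg/ml glucose-6-phosphate.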

PAE 105250 = format: cell-based, P. aeruginosa; conditions: PAE 105250
In short: as §1

PAE UFR48 = format: cell-based, P. aeruginosa; conditions: PAE UFR48
In short: as §1

PAE UFR90 = format: cell-based, P. aeruginosa; conditions: PAE UFR90
In short: as §1

SAU 29213 = format: cell-based, S. aureus; conditions: SAU 29213
In short: as §1

SPN 49619 = format: cell-based, S. pneumoniae; conditions: SPN 49619
In short: as §1

[1] = Pseudomonas aeruginosa, antibiotic alone, read-out: MIC ATB alone

SMILES: C=CC1=C(C(=O)O)N2C(=O)[C@@H](NC(=O)/C(=N\OCC(=O)O)c3csc(N)n3)[C@H]2SC1 [FIX, Cefixime, reference compound]
- MIC ATB combined with Example 9 @4 μg/ml (ECL P99; ECL P99, with Example 9 at 4 μg/ml): <0.031 µg/mL
- MIC ATB combined with Example 11 @8 μg/ml (ECL P99; ECL P99, with Example 11 at 8 μg/ml): <0.031 µg/mL
- MIC ATB combined with Example 12 @8 μg/ml (ECL P99; ECL P99, with Example 12 at 8 μg/ml): <0.031 µg/mL
- MIC ATB combined with Example 13 @8 μg/ml (ECL P99; ECL P99, with Example 13 at 8 μg/ml): 8 µg/mL
- MIC ATB combined with Example 14 @8 μg/ml (ECL P99; ECL P99, with Example 14 at 8 μg/ml): <0.031 µg/mL
- MIC ATB combined with Example 15 @4 μgml (ECL P99; ECL P99, with Example 15 at 4 μg/ml): <0.031 µg/mL
- MIC ATB combined with Example 16 @4 μg/ml (ECL P99; ECL P99, with Example 16 at 4 μg/ml): <0.031 µg/mL
- MIC (ECL P99): > 128 µg/mL
- MIC (ECL P99; ECL P99, antibiotic alone, read-out: MIC ATB alone): > 512 µg/mL
- MIC ATB combined with Example 1 @8 μg/ml (PAE 105250; with Example 1 @8 μg/ml): <0.031 µg/mL
- MIC ATB combined with Example 1 @8 μg/ml (PAE 105250; with Example 1 at 8 μg/ml): <0.031 µg/mL
- MIC ATB combined with Example 7 @8 μgml (PAE 105250; with Example 7 at 8 μg/ml): >32 µg/mL
- MIC ATB combined with Example 9 @4 μg/ml (PAE 105250; with Example 9 @4 μg/ml): >32 µg/mL
- MIC ATB combined with Example 9 @4 μg/ml (PAE 105250; with Example 9 at 4 μg/ml): >32 µg/mL
- MIC ATB combined with Example 11 @8 μg/ml (PAE 105250; with Example 11 at 8 μg/ml): >32 µg/mL
- MIC ATB combined with Example 12 @8 μg/ml (PAE 105250; with Example 12 at 8 μg/ml): >32 µg/mL
- MIC ATB combined with Example 13 @8 μg/ml (PAE 105250; with Example 13 at 8 μg/ml): >32 µg/mL
- MIC ATB combined with Example 14 @8 μg/ml (PAE 105250; with Example 14 at 8 μg/ml): >32 µg/mL
- MIC ATB combined with Example 15 @4 μgml (PAE 105250; with Example 15 at 4 μg/ml): >32 µg/mL
- MIC ATB combined with Example 16 @4 μg/ml (PAE 105250; with Example 16 at 4 μg/ml): >32 µg/mL
- MIC (PAE 105250; [1]): > 512 µg/mL
- MIC ATB combined with Example 1 @8 μg/ml (PAE UFR48; with Example 1 @8 μg/ml): <0.031 µg/mL
- MIC ATB combined with Example 1 @8 μg/ml (PAE UFR48; with Example 1 at 8 μg/ml): <0.031 µg/mL
- MIC ATB combined with Example 7 @8 μgml (PAE UFR48; with Example 7 at 8 μg/ml): >32 µg/mL
- MIC ATB combined with Example 9 @4 μg/ml (PAE UFR48; with Example 9 @4 μg/ml): >32 µg/mL
- MIC ATB combined with Example 9 @4 μg/ml (PAE UFR48; with Example 9 at 4 μg/ml): >32 µg/mL
- MIC ATB combined with Example 11 @8 μg/ml (PAE UFR48; with Example 11 at 8 μg/ml): >32 µg/mL
- MIC ATB combined with Example 12 @8 μg/ml (PAE UFR48; with Example 12 at 8 μg/ml): >32 µg/mL
- MIC ATB combined with Example 13 @8 μg/ml (PAE UFR48; with Example 13 at 8 μg/ml): >32 µg/mL
- MIC ATB combined with Example 14 @8 μg/ml (PAE UFR48; with Example 14 at 8 μg/ml): >32 µg/mL
- MIC ATB combined with Example 15 @4 μgml (PAE UFR48; with Example 15 at 4 μg/ml): >32 µg/mL
- MIC ATB combined with Example 16 @4 μg/ml (PAE UFR48; with Example 16 at 4 μg/ml): >32 µg/mL
- MIC (PAE UFR48; [1]): > 512 µg/mL
- MIC ATB combined with Example 1 @8 μg/ml (PAE UFR90; with Example 1 @8 μg/ml): <0.031 µg/mL
- MIC ATB combined with Example 1 @8 μg/ml (PAE UFR90; with Example 1 at 8 μg/ml): <0.031 µg/mL
- MIC ATB combined with Example 7 @8 μgml (PAE UFR90; with Example 7 at 8 μg/ml): >32 µg/mL
- MIC ATB combined with Example 9 @4 μg/ml (PAE UFR90; with Example 9 @4 μg/ml): >32 µg/mL
- MIC ATB combined with Example 9 @4 μg/ml (PAE UFR90; with Example 9 at 4 μg/ml): >32 µg/mL
- MIC ATB combined with Example 11 @8 μg/ml (PAE UFR90; with Example 11 at 8 μg/ml): >32 µg/mL
- MIC ATB combined with Example 12 @8 μg/ml (PAE UFR90; with Example 12 at 8 μg/ml): >32 µg/mL
- MIC ATB combined with Example 13 @8 μg/ml (PAE UFR90; with Example 13 at 8 μg/ml): >32 µg/mL
- MIC ATB combined with Example 14 @8 μg/ml (PAE UFR90; with Example 14 at 8 μg/ml): >32 µg/mL
- MIC ATB combined with Example 15 @4 μgml (PAE UFR90; with Example 15 at 4 μg/ml): >32 µg/mL
- MIC ATB combined with Example 16 @4 μg/ml (PAE UFR90; with Example 16 at 4 μg/ml): >32 µg/mL
- MIC (PAE UFR90; [1]): > 32 µg/mL
- MIC ATB combined with Example 1 @8 μg/ml (SAU 29213; with Example 1 @8 μg/ml): 16 µg/mL
- MIC ATB combined with Example 1 @8 μg/ml (SAU 29213; with Example 1 at 8 μg/ml): 16 µg/mL
- MIC ATB combined with Example 7 @8 μgml (SAU 29213; with Example 7 at 8 μg/ml): 8 µg/mL
- MIC ATB combined with Example 9 @4 μg/ml (SAU 29213; with Example 9 @4 μg/ml): <=0.031 μg/mL
- MIC ATB combined with Example 9 @4 μg/ml (SAU 29213; with Example 9 at 4 μg/ml): <=0.031 μg/mL
- MIC ATB combined with Example 11 @8 μg/ml (SAU 29213; with Example 11 at 8 μg/ml): 0.125 µg/mL
- MIC ATB combined with Example 12 @8 μg/ml (SAU 29213; with Example 12 at 8 μg/ml): <0.031 µg/mL
- MIC ATB combined with Example 13 @8 μg/ml (SAU 29213; with Example 13 at 8 μg/ml): 4 µg/mL
- MIC ATB combined with Example 14 @8 μg/ml (SAU 29213; with Example 14 at 8 μg/ml): <0.031 µg/mL
- MIC ATB combined with Example 15 @4 μgml (SAU 29213; with Example 15 at 4 μg/ml): <0.031 µg/mL
- MIC ATB combined with Example 16 @4 μg/ml (SAU 29213; with Example 16 at 4 μg/ml): <0.031 µg/mL
- MIC (SAU 29213; Staphylococcus aureus, antibiotic alone, read-out: MIC ATB alone): 16 µg/mL
- MIC ATB combined with Example 1 @8 μg/ml (SPN 49619; with Example 1 @8 μg/ml): 1 µg/mL
- MIC ATB combined with Example 1 @8 μg/ml (SPN 49619; with Example 1 at 8 μg/ml): 1 µg/mL
- MIC ATB combined with Example 7 @8 μgml (SPN 49619; with Example 7 at 8 μg/ml): 1 µg/mL
- MIC ATB combined with Example 9 @4 μg/ml (SPN 49619; with Example 9 @4 μg/ml): 0.25 µg/mL
- MIC ATB combined with Example 9 @4 μg/ml (SPN 49619; with Example 9 at 4 μg/ml): 0.25 µg/mL
- MIC ATB combined with Example 11 @8 μg/ml (SPN 49619; with Example 11 at 8 μg/ml): 0.25 µg/mL
- MIC ATB combined with Example 12 @8 μg/ml (SPN 49619; with Example 12 at 8 μg/ml): <0.031 µg/mL
- MIC ATB combined with Example 13 @8 μg/ml (SPN 49619; with Example 13 at 8 μg/ml): 0.5 µg/mL
- MIC ATB combined with Example 14 @8 μg/ml (SPN 49619; with Example 14 at 8 μg/ml): <0.031 µg/mL
- MIC ATB combined with Example 15 @4 μgml (SPN 49619; with Example 15 at 4 μg/ml): 0.25 µg/mL
- MIC ATB combined with Example 16 @4 μg/ml (SPN 49619; with Example 16 at 4 μg/ml): <0.031 µg/mL
- MIC (SPN 49619; Streptococcus pneumoniae, antibiotic alone, read-out: MIC ATB alone): 1 µg/mL
